Reference: PubChem BioAssay (NCI)
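1) Cells in 96-well plates. 2) Compound, 48 h, 5 concentrations. 3) Linear interpolation between surrounding doses. 4) Unreached endpoint = highest concentration. The concentration for 50% growth inhibition is given as GI50. TGI denotes the concentration required for complete inhibition of growth.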

Experiments:
Test in all cases: NCI-60 cell line screen, 48 h
[1] = test system: ACHN renal
[2] = test system: EKVX NSCLC
[3] = test system: HL-60(TB) leukemia
[4] = test system: HOP-92 NSCLC
[5] = test system: SF-268 CNS
[6] = test system: SK-MEL-2 melanoma
[7] = test system: SK-MEL-28 melanoma
[8] = test system: UACC-62 melanoma
[9] = test system: NCI/ADR-RES ovarian

Compound | GI50 [1] [µM] | TGI [1] [µM] | GI50 [2] [µM] | TGI [2] [µM] | GI50 [3] [µM] | TGI [3] [µM] | GI50 [4] [µM] | TGI [4] [µM] | GI50 [5] [µM] | TGI [5] [µM] | GI50 [6] [µM] | TGI [6] [µM] | GI50 [7] [µM] | TGI [7] [µM] | GI50 [8] [µM] | TGI [8] [µM] | GI50 [9] [µM] | TGI [9] [µM]
CCC[CH2][Sn]([Cl])([Cl])[CH2]CCC | 0.449 | 1.62 | 0.848 | 2.25 | 0.275 | 1.02 | 1.15 | 2.64 | 0.457 | 1.77 | 0.495 | 1.54 | 0.363 | 1.36 | 0.429 | 1.63 | – | –
COc1ccc(N=NC(C(=O)c2ccccc2)C(=O)c2ccccc2)cc1 | – | 86.1 | – | 71.1 | – | 32.7 | – | – | – | > 100 | – | 61.2 | – | > 100 | – | 56.1 | – | –
COc1cc2c(c(OC)c1OC)-c1ncc3c(OC)c(OC)c(OC)cc3c1C2 | 31.2 | > 100 | 32.7 | > 100 | – | – | 52.1 | > 100 | – | – | 30.8 | 74.4 | 34.9 | > 100 | 21.1 | 49.3 | 15.6 | 38
CCOC(=O)C(=O)Nc1ccccc1C | – | > 100 | – | > 100 | – | > 100 | – | > 100 | – | > 100 | – | > 100 | – | > 100 | – | > 100 | – | –
O=c1c2cc(F)ccc2sc2c(N3CCNCC3)nc3ccc(F)cc3c12 | 1.48 | 2.8 | 1.62 | 3.04 | 2.05 | 3.94 | 1.18 | 2.52 | 1.57 | 3.16 | 1.84 | 3.53 | 1.74 | 3.17 | 1.74 | 3.19 | 1.75 | 3.44
CC1=C(C(=O)CC(=O)C(=O)Nc2cc(C)ccc2C)Sc2ccccc2N1 | – | > 100 | – | > 100 | – | > 100 | – | > 100 | – | > 100 | – | > 100 | – | > 100 | – | > 100 | – | –
O=C(CCC(=O)Nc1ccc(Cl)c(Cl)c1)CC(=O)c1ccc(Br)cc1 | – | > 100 | – | > 100 | – | – | – | > 100 | – | > 100 | – | > 100 | – | > 100 | – | > 100 | – | –
COc1cccc(/C(C#N)=C/c2nc3c(N4CCOCC4)nc(Cl)nc3n2C)c1 | 0.625 | 1.89 | 1.44 | 2.84 | 1.46 | 3.96 | 0.453 | 2.21 | 1.57 | 3.17 | 1.4 | 2.81 | 1.61 | 3.1 | 1.2 | 2.47 | 2.31 | 9.31
CCNC(=O)COc1ccc(Br)cc1Br | – | > 100 | – | 34.3 | – | > 100 | – | > 100 | – | > 100 | – | > 100 | – | > 100 | – | > 100 | – | –
CC1/C=C/[C@@]2(C)CCC(C(C)(C)O)C2C(O)C[C@](C)(O)/C=C/C1 (some centres undefined) | – | > 100 | – | > 100 | – | > 100 | – | > 100 | – | > 100 | – | > 100 | – | > 100 | – | > 100 | – | –
CC(=O)N/N=C1\CC(C)(C)C2CCC1C2 (centres undefined) | – | > 100 | – | > 100 | – | > 100 | – | > 100 | – | > 100 | – | > 100 | – | > 100 | – | > 100 | – | –
C=C(CC(NC(=O)c1ccc(C(CC)Cc2cnc3nc(N)nc(N)c3n2)cc1)C(=O)O)C(=O)O (centres undefined) | – | > 100 | – | > 100 | – | > 100 | – | – | 0.0252 | > 100 | – | – | – | > 100 | – | > 100 | – | –
COc1ccc(NC(=O)/C(=C/c2ccccc2)C(C)=O)cc1 | – | 42.2 | – | 49.4 | – | 17.7 | – | 29.6 | – | 34.3 | – | 28.6 | – | 26.1 | – | 22.3 | – | –
COc1ccc(NC(=O)CC2SC(=Nc3ccccc3C)NC2=O)c([N+](=O)[O-])c1 (centres undefined) | – | > 100 | – | – | – | > 100 | – | > 100 | – | > 100 | – | > 100 | – | > 100 | – | > 100 | – | –
OCc1ccc(N2CCc3cccc(F)c3C2)cc1Cl | 20.7 | 67.3 | – | – | 18.4 | 53.2 | 0.0873 | 14.2 | 24.5 | > 89.4 | – | 30.5 | 25.7 | > 79.7 | – | – | 7.68 | 37.1
CCC1CC2C(=O)N(c3ccccc3)C(=O)C2c2[nH]c3ccccc3c21 (centres undefined) | – | > 100 | – | 95.3 | – | 98 | – | – | – | 80 | – | – | – | > 100 | – | > 100 | – | –
N/N=C1\C(=O)N(C2CCCCCC2)C(=O)C1C(=O)NC1CCCCCC1 (centres undefined) | – | > 100 | – | > 100 | – | 45.1 | – | 41.6 | – | > 100 | – | 37.6 | – | > 10 | – | 41.6 | – | –

Compound | GI50 [1] [µM] | TGI [1] [µM] | GI50 [2] [µM] | TGI [2] [µM] | GI50 [3] [µM] | TGI [3] [µM] | GI50 [4] [µM] | TGI [4] [µM] | GI50 [5] [µM] | TGI [5] [µM] | GI50 [6] [µM] | TGI [6] [µM] | GI50 [7] [µM] | TGI [7] [µM] | GI50 [8] [µM] | TGI [8] [µM] | GI50 [9] [µM] | TGI [9] [µM]
CCC(=O)c1c(NOC2OCC(OC(C)=O)C(OC(C)=O)C2OC(C)=O)nc(OC)n(C)c1=O (centres undefined) | – | > 100 | – | > 100 | – | > 100 | – | > 100 | – | > 100 | – | – | – | > 100 | – | > 100 | – | –
O=C(/C=C/c1ccccc1)C(Br)C(Br)c1ccccc1 (centres undefined) | 1.25 | 2.57 | – | – | 1.34 | 3.58 | – | – | 2.16 | 5.68 | 1.82 | 3.6 | 2.04 | 4.66 | 1.64 | 3.29 | 3.37 | 19
COc1ccc(OC)c(NC(=O)CCC/C(CC(=O)c2ccc(O)c(OC)c2)=N\Nc2nnc(C)n2N)c1 | – | > 100 | – | > 100 | – | > 100 | – | > 100 | – | > 100 | – | > 100 | – | > 100 | – | > 100 | – | –
COC12CCC(=O)C=C1c1ccccc1N2C(C)=O (centres undefined) | – | > 100 | – | > 100 | – | > 100 | – | – | – | – | – | > 100 | – | > 100 | – | > 100 | – | –
CC1=CC(=O)CC2(C)CC[C@@H]3C[C@]12OC3(C)C (some centres undefined) | – | > 100 | – | > 100 | – | > 100 | – | > 100 | – | > 100 | – | > 100 | – | > 100 | – | > 100 | – | –
CC1=Nc2c(ccc3c2C(=O)c2ccccc2C3=O)NC(c2cccc3c2CCC3)C1 (centres undefined) | – | > 100 | – | > 100 | – | > 100 | – | > 100 | – | > 100 | – | > 100 | – | > 100 | – | > 100 | – | –
COc1ccc2c(=O)cc(-c3ccccc3)[nH]c2c1 | 4.22 | > 100 | 2.25 | > 100 | 0.256 | 1.19 | 0.378 | > 100 | 1.28 | > 100 | – | > 100 | 7.84 | > 100 | 0.431 | > 100 | 0.547 | 6.15
CC(C)(C)c1cc(C(O)(C(F)(F)F)C(F)(F)F)c2c(c1)C(C(F)(F)F)(C(F)(F)F)OC(C)(C(C)(C)C)N2 (centres undefined) | – | 12.1 | – | 22.4 | – | – | – | – | – | – | – | 17.7 | – | 28.6 | – | 15 | – | –
COc1ccc2cc(/C=C/C(=O)c3ccc(Cl)cc3Cl)ccc2c1 | 35.4 | > 100 | 41.7 | > 100 | 17.5 | 41 | 97.7 | > 100 | 32.9 | > 100 | 24 | 69.9 | – | – | 21.6 | 79.4 | 31 | 96.5
N#Cc1ccccc1C(Cl)(Cl)c1cnccn1 | – | > 100 | – | > 100 | – | 70.2 | – | 65.4 | – | > 100 | – | > 100 | – | > 100 | – | > 100 | – | –
C/C=C(/I)CBr | – | 45.5 | – | 49 | – | 20.5 | – | 29.2 | – | 74.5 | – | 28.4 | – | 52.6 | – | 29.5 | – | –
Cc1ccc(NC(=O)CCc2nc(N)nc(N)c2-c2ccccc2)cc1C | – | > 100 | – | > 100 | – | > 100 | – | > 100 | – | > 100 | – | > 100 | – | > 100 | – | > 100 | – | –
O=c1/c(=C/c2ccccc2[N+](=O)[O-])sc2nc3ccccc3n12 | – | > 46.4 | – | > 100 | – | > 46.4 | – | > 46.4 | – | > 46.4 | – | > 46.4 | – | > 46.4 | – | > 100 | – | –
CC1=C[C@H]2c3c([nH]c4ccccc34)C(c3c[nH]c4ccccc34)[C@H]2CC1 (some centres undefined) | – | 25 | – | 29.7 | – | 17.6 | – | 5.34 | – | – | – | – | – | 26 | – | 23.1 | – | –
COC(=O)/C=C(C)/C=C/C1OC(C)OCC1O (centres undefined) | – | > 100 | – | > 100 | – | > 100 | – | > 100 | – | > 100 | – | – | – | – | – | > 100 | – | –
CCOC(=O)C1=C(Nc2ccc(Cl)cc2Cl)OCC1=O | – | > 100 | – | – | – | > 100 | – | > 100 | – | > 100 | – | > 100 | – | > 100 | – | > 100 | – | –
